Source: patent publication US7855189B2, “N-phenylphosphoric acid triamides, method for the production thereof and their use as agents for regulating or inhibiting enzymatic urea hydrolysis” (SKW Stickstoffwerke Piesteritz GmbH, priority 2004, dated 2010)
Marks after values point to notes of the source that are not given here.

Tested on: urease
Assay: Testing for urease-inhibiting effect in soil (NH3-N release from urea)
Assay type: biochemical
Conditions: 30 g soil at 40% of max water capacity, 50 mg urea
Procedure: 30 g soil set to 40% of the maximum water capacity are added with 1 ml urea solution corresponding to 50 mg urea. At the same time the active substance is applied, preferably dissolved in the urea solution. The concentration details for the individual tested active substances given in the following table relate to the quantity of carbamide nitrogen used in the test. The soil, on the surface of which the urea solution (with and without the active substance) is applied is located in an airtight sealed container into which a receiver is inserted at the same time which collects the ammonia released from the urea as ammonium. By rinsing the receiver daily and analysing the NH4—N quantities contained, the NH3—N-release from the urea is determined.
From the summation of the ammonium quantities in the receiver, the percentage inhibition of the urea hydrolysis dependently upon time is calculated and from these values the t50 value is determined mathematically.
The t50 value is understood to be the time in days since the start of the test at which the urea hydrolysis inhibition is still 50%.

Row | Compound | urease inhibition t50 value (time in days at which the urea hydrolysis inhibition is still 50%) (conc. 0.05 % HS-N-related (in relation to urea nitrogen used)) | urease inhibition t50 value (time in days at which the urea hydrolysis inhibition is still 50%) (conc. 0.5 % HS-N-related (in relation to urea nitrogen used))
1 | NP(N)(=O)Nc1ccccc1[N+](=O)[O-] [Compound 1, N-(2-nitrophenyl)phosphoric acid triamide] | >25^b) d | 
2 | Cc1cccc(NP(N)(N)=O)c1 [Compound 2, N-(3-methylphenyl)phosphoric acid triamide] |  | 11.2 days
